Results: PubChem BioAssay (NCI)
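Briefly, cells in 96-well plates were exposed to five compound concentrations for 48 h, and endpoints were estimated by linear interpolation. At the TGI there is no net growth.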

How the values were obtained:
Test in all cases: NCI-60 cell line screen, 48 h
[1] = system: 786-0 renal
[2] = system: A498 renal
[3] = system: A549 NSCLC
[4] = system: ACHN renal
[5] = system: CCRF-CEM leukemia
[6] = system: COLO 205 colon
[7] = system: DU-145 prostate
[8] = system: EKVX NSCLC
[9] = system: HCC-2998 colon
[10] = system: HCT-116 colon
[11] = system: HCT-15 colon
[12] = system: HL-60(TB) leukemia
[13] = system: HOP-62 NSCLC
[14] = system: HOP-92 NSCLC
[15] = system: HS 578T breast
[16] = system: HT29 colon
[17] = system: IGROV1 ovarian
[18] = system: K-562 leukemia
[19] = system: KM12 colon
[20] = system: LOX IMVI melanoma
[21] = system: M14 melanoma
[22] = system: MALME-3M melanoma
[23] = system: MDA-MB-231 breast
[24] = system: MDA-MB-435
[25] = system: MDA-N
[26] = system: MOLT-4 leukemia
[27] = system: NCI-H226 lung
[28] = system: NCI-H23 lung
[29] = system: NCI-H460 lung
[30] = system: NCI-H522 lung
[31] = system: NCI/ADR-RES ovarian
[32] = system: OVCAR-3 ovarian
[33] = system: OVCAR-4 ovarian
[34] = system: OVCAR-5 ovarian
[35] = system: OVCAR-8 ovarian
[36] = system: PC-3 prostate
[37] = system: RPMI-8226 leukemia
[38] = system: RXF 393 renal
[39] = system: SF-268 CNS
[40] = system: SF-295 CNS
[41] = system: SF-539 CNS
[42] = system: SK-MEL-2 melanoma
[43] = system: SK-MEL-28 melanoma
[44] = system: SK-MEL-5 melanoma
[45] = system: SN12C renal
[46] = system: SNB-19 CNS
[47] = system: SNB-75 CNS
[48] = system: SR leukemia
[49] = system: SW-620 colon
[50] = system: T-47D breast
[51] = system: U251 CNS
[52] = system: UACC-257 melanoma
[53] = system: UACC-62 melanoma
[54] = system: UO-31 renal

Measured: TGI

C#CCCOC1(OC)N=NC(C)(C)O1 (centres undefined)
> 100 µM: all assays above
